Assay results reported in patent US20090176807A1, “GLUCOCORTICOID MIMETICS, METHODS OF MAKING THEM, PHARMACEUTICAL COMPOSITIONS, AND USES THEREOF” (priority 2005, published 2009).

Target: T1, human glucocorticoid receptor (GR) complex (Homo sapiens, UniProt P04150)
T1 construct: made in house; host or cells: insect expression system (baculovirus lysate)
T1 sequence (P04150 1-777): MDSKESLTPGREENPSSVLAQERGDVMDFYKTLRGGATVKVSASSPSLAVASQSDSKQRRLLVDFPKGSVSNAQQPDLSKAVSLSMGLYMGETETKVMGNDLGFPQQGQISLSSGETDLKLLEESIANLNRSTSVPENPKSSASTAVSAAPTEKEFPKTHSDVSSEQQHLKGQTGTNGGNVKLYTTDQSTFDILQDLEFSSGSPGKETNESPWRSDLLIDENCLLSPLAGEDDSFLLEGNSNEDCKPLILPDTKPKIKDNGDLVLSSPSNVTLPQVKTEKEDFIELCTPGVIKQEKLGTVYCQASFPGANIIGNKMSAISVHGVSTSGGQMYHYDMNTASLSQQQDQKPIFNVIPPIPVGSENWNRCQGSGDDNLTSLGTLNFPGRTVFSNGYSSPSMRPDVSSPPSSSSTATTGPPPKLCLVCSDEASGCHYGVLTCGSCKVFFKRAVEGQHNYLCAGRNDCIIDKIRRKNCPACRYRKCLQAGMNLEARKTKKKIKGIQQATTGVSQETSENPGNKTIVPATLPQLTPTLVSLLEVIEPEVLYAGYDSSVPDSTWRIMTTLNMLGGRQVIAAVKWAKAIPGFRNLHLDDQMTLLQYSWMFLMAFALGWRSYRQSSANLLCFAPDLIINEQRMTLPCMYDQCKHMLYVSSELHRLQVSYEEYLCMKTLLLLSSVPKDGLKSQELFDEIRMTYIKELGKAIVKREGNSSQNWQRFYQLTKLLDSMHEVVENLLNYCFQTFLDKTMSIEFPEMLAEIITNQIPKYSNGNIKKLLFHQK
Experiment: Glucocorticoid receptor competitive binding assay (fluorescence polarization)
Conditions: competition with TAMRA-labeled dexamethasone, result in words only
Method: Compounds of the invention were evaluated for binding to the steroid receptor by a fluorescence polarization competitive binding assay.
The wavelengths for maximum excitation and emission of the fluorescent probe should first be measured. An example of such a probe is rhodamine (TAMRA)-labeled dexamethasone.
The affinity of the probe for the steroid receptor was then determined in a titration experiment. The fluorescence polarization value of the probe in assay buffer was measured on an SLM-8100 fluorometer using the excitation and emission maximum values described above. Aliquots of expression vector lysate were added and fluorescence polarization was measured after each addition until no further change in polarization value was observed. Non-linear least squares regression analysis was used to calculate the dissociation constant of the probe from the polarization values obtained for lysate binding to the probe.
This assay uses fluorescence polarization (FP) to quantitate the ability of test compounds to compete with tetramethyl rhodamine (TAMRA)-labeled dexamethasone for binding to a human glucocorticoid receptor (GR) complex prepared from an insect expression system. The assay buffer was: 10 mM TES, 50 mM KCl, 20 mM Na2MoO4.2H2O, 1.5 mM EDTA, 0.04% w/v CHAPS, 10% v/v glycerol, 1 mM dithiothreitol, pH 7.4. Test compounds were dissolved to 1 mM in neat DMSO and then further diluted to 10× assay concentration in assay buffer supplemented with 10% v/v DMSO. Test compounds were serially diluted at 10× assay concentrations in 10% DMSO-containing buffer in 96-well polypropylene plates. Binding reaction mixtures were prepared in 96-well black Dynex microtiter plates by sequential addition of the following assay components to each well: 15 μL of 10× test compound solution, 85 μL of GR-containing baculovirus lysate diluted 1:170 in assay buffer, and 50 μL of 15 nM TAMRA-labeled dexamethasone. Positive controls were reaction mixtures containing no test compound; negative controls (blanks) were reaction mixtures containing 0.7 μM to 2 μM dexamethasone. […] IC50 values were determined by iterative non-linear curve fitting of the FP signal data to a 4-parameter logistic equation.

Activity in the GR binding assay, potent activity:
CC(C)(CC(O)(Cn1cc(Cl)c(=O)c2cnccc21)C(F)(F)F)c1cccc2c1OCO2 (stereo not drawn) [1-(4-Benzo[1,3]dioxol-4-yl-2-hydroxy-4-methyl-2-trifluoromethylpentyl)-3-chloro-1H-[1,6]naphthyridin-4-one]
CC(C)(CC(O)(Cn1ccc(=O)c2cnccc21)C(F)(F)F)c1cc(-c2cncnc2)cc2c1OCC2 (stereo not drawn) [1-[2-Hydroxy-4-methyl-4-(5-pyrimidin-5-yl-2,3-dihydrobenzofuran-7-yl)-2-trifluoromethylpentyl]-1H-[1,6]naphthyridin-4-one]
CC(C)(CC(O)(Cn1ccc(=O)c2cnccc21)C(F)(F)F)c1cc(F)ccc1O (stereo not drawn) [1-[4-(5-Fluoro-2-hydroxyphenyl)-2-hydroxy-4-methyl-2-trifluoromethylpentyl]-1H-[1,6]naphthyridin-4-one]
COc1ccc(F)cc1C(C)(C)CC(O)(Cn1ccc(=O)c2cnccc21)C(F)(F)F (stereo not drawn) [1-[4-(5-Fluoro-2-methoxyphenyl)-2-hydroxy-4-methyl-2-trifluoromethylpentyl]-1H-[1,6]naphthyridin-4-one]
Cc1ccc(F)cc1C(C)(C)CC(O)(Cn1ccc(=O)c2cnccc21)C(F)(F)F (stereo not drawn) [1-[4-(5-Fluoro-2-methylphenyl)-2-hydroxy-4-methyl-2-trifluoromethylpentyl]-1H-[1,6]naphthyridin-4-one]
CC(C)(CC(O)(Cn1cc(Cl)c(=O)c2cnccc21)C(F)(F)F)c1cc(-c2cccnc2)cc2c1OCC2 (stereo not drawn) [3-Chloro-1-[2-hydroxy-4-methyl-4-(5-pyridin-3-yl-2,3-dihydrobenzofuran-7-yl)-2-trifluoromethylpentyl]-1H-[1,6]naphthyridin-4-one]
CC(C)(CC(O)(Cn1cc(Cl)c(=O)c2cnccc21)C(F)(F)F)c1cc(-c2cncnc2)cc2c1OCC2 (stereo not drawn) [3-Chloro-1-[2-hydroxy-4-methyl-4-(5-pyrimidin-5-yl-2,3-dihydrobenzofuran-7-yl)-2-trifluoromethylpentyl]-1H-[1,6]naphthyridin-4-one]
CC(C)(CC(O)(Cn1cc(Cl)c(=O)c2sccc21)C(F)(F)F)c1cccc2c1OCO2 (stereo not drawn) [4-(4-Benzo[1,3]dioxol-4-yl-2-hydroxy-4-methyl-2-trifluoromethylpentyl)-6-chloro-4H-thieno[3,2-b]pyridin-7-one]
CC(C)(CC(O)(Cn1ccc(=O)c2sccc21)C(F)(F)F)c1cccc(-c2ccccc2)c1 (stereo not drawn) [4-(4-Biphenyl-3-yl-2-hydroxy-4-methyl-2-trifluoromethylpentyl)-4H-thieno[3,2-b]pyridin-7-one]
CC(C)(CC(O)(Cn1cc(Cl)c(=O)c2sccc21)C(F)(F)F)c1cccc(-c2ccccc2)c1 (stereo not drawn) [4-(4-Biphenyl-3-yl-2-hydroxy-4-methyl-2-trifluoromethylpentyl)-6-chloro-4H-thieno[3,2-b]pyridin-7-one]
Cc1cccc(C(C)(C)CC(O)(Cn2ccc(=O)c3sccc32)C(F)(F)F)c1O (stereo not drawn) [4-[2-Hydroxy-4-(2-hydroxy-3-methylphenyl)-4-methyl-2-trifluoromethylpentyl]-4H-thieno[3,2-b]pyridin-7-one]
CC(C)(CC(O)(Cn1ccc(=O)c2sccc21)C(F)(F)F)c1cc(-c2cncnc2)ccc1O (stereo not drawn) [4-[2-Hydroxy-4-(2-hydroxy-5-pyrimidin-5-ylphenyl)-4-methyl-2-trifluoromethylpentyl]-4H-thieno[3,2-b]pyridin-7-one]
